In ChEMBL document CHEMBL1909046, “DrugMatrix in vitro pharmacology data”:

Key:
Cytochrome P450 3A4 = Cytochrome P450 3A4 (Homo sapiens, UniProt P08684); conditions: bti-tn-5b1-4; also: in other assays of this panel Not Active means under 50% inhibition at 10 µM
Melanocortin receptor 5 = Melanocortin receptor 5 (Homo sapiens, UniProt P33032); assay type: cell membranes, HEK293, Membrane; also: in other assays of this panel Not Active means under 50% inhibition at 10 µM
[1] = biological target: Sodium-dependent noradrenaline transporter (Homo sapiens, UniProt P23975); assay: DRUGMATRIX: Norepinephrine Transporter radioligand binding (ligand: [125I] RTI-55); assay type: cell membranes, MDCK, Membrane; conditions: Not Active = under 50% inhibition at 10 µM
[2] = biological target: Voltage-gated inwardly rectifying potassium channel KCNH2 (Homo sapiens, UniProt Q12809); conditions: hek293; also: in other assays of this panel Not Active means under 50% inhibition at 10 µM
[3] = biological target: T1, Neuropeptide Y receptor type 2 (Homo sapiens, UniProt P49146); assay type: cell membranes, Membrane; conditions: kan-ts; also: in other assays of this panel Not Active means under 50% inhibition at 10 µM
T1 sequence (P49146 whole entry): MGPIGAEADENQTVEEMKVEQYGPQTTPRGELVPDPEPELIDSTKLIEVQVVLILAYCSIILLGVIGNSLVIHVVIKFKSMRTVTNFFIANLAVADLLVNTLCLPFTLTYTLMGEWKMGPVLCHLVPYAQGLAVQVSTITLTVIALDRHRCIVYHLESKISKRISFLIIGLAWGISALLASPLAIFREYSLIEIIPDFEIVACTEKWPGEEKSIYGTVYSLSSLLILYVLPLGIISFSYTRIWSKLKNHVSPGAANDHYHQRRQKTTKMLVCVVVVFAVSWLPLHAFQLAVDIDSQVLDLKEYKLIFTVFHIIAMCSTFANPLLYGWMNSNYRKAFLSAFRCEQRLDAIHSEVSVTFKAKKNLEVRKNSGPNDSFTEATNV

Substance-P receptor = Substance-P receptor (Homo sapiens, UniProt P25103); assay type: cell membranes, Membrane; conditions: cho; also: in other assays of this panel Not Active means under 50% inhibition at 10 µM
Endothelin-1 receptor = biological target: T2, Endothelin-1 receptor (Homo sapiens, UniProt P25101); assay type: cell membranes, Membrane; conditions: cho-k1; also: in other assays of this panel Not Active means under 50% inhibition at 10 µM
T2 sequence (P25101 whole entry): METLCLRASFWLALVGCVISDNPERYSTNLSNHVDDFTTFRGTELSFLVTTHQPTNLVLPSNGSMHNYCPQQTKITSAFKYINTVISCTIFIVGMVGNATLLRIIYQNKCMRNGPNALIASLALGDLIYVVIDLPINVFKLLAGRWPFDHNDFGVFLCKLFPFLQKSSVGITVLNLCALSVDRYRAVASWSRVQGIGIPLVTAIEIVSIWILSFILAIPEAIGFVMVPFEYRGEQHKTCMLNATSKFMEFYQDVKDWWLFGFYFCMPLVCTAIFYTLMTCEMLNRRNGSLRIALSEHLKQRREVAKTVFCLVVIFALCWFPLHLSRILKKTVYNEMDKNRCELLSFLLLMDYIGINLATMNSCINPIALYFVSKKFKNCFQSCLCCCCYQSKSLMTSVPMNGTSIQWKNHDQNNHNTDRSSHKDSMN

[4] = DRUGMATRIX: Glutamate, NMDA, Phencyclidine radioligand binding (ligand: [3H] TCP); assay type: cell membranes, Rattus norvegicus, Wistar, Cerebral cortex, Membrane; conditions: Not Active = under 50% inhibition at 10 µM

Sequence of Melanocortin receptor 5 (P33032 whole entry): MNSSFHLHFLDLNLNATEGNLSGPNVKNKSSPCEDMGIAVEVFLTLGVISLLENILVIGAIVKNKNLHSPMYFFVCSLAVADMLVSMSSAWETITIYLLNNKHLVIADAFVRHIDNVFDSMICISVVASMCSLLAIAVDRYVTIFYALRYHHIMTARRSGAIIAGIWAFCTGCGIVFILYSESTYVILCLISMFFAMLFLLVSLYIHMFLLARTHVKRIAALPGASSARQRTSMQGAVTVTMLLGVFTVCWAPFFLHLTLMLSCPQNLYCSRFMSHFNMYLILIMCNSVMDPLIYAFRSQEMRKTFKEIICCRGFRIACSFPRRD
Sequence of Sodium-dependent noradrenaline transporter (P23975 whole entry): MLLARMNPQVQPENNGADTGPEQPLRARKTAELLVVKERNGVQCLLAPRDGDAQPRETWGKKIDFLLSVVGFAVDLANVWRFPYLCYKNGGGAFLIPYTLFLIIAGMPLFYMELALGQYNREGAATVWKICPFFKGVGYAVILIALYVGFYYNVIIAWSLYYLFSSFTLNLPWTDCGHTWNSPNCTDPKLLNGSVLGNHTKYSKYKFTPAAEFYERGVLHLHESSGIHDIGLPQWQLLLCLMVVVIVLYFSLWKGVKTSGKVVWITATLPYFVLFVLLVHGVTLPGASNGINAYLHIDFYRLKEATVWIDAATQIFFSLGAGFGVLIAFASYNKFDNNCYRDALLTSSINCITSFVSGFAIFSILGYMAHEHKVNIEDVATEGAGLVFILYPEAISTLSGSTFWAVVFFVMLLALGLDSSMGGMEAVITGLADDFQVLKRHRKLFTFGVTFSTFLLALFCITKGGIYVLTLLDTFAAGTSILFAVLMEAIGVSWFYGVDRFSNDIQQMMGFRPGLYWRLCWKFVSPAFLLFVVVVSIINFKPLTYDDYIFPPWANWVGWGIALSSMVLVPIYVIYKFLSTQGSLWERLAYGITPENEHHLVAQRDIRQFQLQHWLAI
Sequence of Voltage-gated inwardly rectifying potassium channel KCNH2 (Q12809 whole entry): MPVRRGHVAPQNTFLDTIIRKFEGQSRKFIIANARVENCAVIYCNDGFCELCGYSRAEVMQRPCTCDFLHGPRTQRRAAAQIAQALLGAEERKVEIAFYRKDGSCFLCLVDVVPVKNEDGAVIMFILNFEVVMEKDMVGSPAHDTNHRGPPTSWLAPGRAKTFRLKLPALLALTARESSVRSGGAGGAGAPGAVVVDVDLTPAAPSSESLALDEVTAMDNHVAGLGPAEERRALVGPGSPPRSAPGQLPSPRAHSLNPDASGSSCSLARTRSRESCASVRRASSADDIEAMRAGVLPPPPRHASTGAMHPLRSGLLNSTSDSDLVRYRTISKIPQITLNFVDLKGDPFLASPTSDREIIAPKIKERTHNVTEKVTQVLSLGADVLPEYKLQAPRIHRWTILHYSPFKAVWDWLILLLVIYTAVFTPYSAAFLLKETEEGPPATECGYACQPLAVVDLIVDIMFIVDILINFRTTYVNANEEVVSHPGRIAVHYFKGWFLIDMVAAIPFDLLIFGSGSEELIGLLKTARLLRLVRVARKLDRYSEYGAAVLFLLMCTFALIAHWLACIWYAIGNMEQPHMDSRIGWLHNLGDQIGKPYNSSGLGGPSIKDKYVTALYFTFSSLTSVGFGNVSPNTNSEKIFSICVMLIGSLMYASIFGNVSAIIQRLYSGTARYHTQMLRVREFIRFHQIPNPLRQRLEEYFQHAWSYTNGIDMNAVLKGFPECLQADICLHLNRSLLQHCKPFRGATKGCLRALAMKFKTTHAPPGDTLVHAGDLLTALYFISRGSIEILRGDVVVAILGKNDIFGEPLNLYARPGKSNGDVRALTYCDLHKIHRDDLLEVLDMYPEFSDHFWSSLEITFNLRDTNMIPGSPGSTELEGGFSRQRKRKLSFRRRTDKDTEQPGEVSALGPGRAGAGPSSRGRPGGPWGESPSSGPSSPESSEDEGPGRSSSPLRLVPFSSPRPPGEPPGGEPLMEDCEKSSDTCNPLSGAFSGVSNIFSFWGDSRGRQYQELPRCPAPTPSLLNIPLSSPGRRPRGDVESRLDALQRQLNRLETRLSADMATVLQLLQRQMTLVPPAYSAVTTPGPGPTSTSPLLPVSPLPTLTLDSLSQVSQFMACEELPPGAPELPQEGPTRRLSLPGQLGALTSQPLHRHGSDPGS
Sequence of Cytochrome P450 3A4 (P08684 whole entry): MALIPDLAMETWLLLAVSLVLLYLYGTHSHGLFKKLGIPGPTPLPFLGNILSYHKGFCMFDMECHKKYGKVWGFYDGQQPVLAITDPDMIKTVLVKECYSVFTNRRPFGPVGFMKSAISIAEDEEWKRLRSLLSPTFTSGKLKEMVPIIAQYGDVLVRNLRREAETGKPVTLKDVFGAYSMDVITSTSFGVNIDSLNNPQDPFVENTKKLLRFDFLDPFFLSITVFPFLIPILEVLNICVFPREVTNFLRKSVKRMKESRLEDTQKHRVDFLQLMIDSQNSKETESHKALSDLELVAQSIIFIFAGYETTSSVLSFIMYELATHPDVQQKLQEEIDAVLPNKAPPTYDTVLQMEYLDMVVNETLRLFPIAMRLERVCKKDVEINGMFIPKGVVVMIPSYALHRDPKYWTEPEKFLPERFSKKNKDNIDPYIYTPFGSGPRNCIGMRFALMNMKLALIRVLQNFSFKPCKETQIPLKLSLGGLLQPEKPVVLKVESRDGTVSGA
Sequence of Substance-P receptor (P25103 whole entry): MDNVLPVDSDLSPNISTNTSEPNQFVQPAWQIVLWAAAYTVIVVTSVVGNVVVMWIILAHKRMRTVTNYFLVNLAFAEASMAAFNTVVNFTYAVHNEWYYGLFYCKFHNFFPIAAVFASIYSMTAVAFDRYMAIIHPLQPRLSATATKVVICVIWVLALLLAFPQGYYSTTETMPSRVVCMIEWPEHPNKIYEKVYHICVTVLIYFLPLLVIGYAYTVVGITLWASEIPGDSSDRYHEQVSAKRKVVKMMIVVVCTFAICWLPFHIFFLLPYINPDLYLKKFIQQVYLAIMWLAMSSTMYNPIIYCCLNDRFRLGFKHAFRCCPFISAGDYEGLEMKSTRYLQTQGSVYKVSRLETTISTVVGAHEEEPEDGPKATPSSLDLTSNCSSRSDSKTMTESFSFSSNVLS

Compound | IC50 (Cytochrome P450 3A4) | Ki (Cytochrome P450 3A4) | IC50 (Melanocortin receptor 5; read-out: IC50) [µM] | Ki (Melanocortin receptor 5; read-out: Ki) [µM] | IC50 ([1]; mdck) | IC50 [2] | Ki [2] | IC50 [3] | IC50 (Substance-P receptor) | IC50 (Endothelin-1 receptor) | IC50 [4] | Ki [4] | IC50 (Melanocortin receptor 5; hek293) | IC50 ([1]; read-out: IC50) [µM] | Ki ([1]; read-out: Ki) [µM] | Ki (Melanocortin receptor 5; hek293) | Ki ([1]; mdck) | Ki [3] | Ki (Substance-P receptor) | Ki (Endothelin-1 receptor)
c1ccc2sc(SSc3nc4ccccc4s3)nc2c1 [BENZOTHIAZYL DISULFIDE] | Not Active | Not Active | 3.9 | 3.7 | Not Active | Not Active | Not Active | Not Active | Not Active | Not Active | Not Active | Not Active | – | – | – | – | – | – | – | –
CC12CCC(CC1)C(C)(C)O2 [EUCALYPTOL] | Not Active | Not Active | – | – | Not Active | Not Active | Not Active | Not Active | Not Active | Not Active | Not Active | Not Active | Not Active | – | – | – | – | – | – | –
CC(=O)Nc1ccc2c(c1)Cc1ccccc1-2 [2-ACETYLAMINOFLUORENE] | Not Active | Not Active | – | – | – | Not Active | Not Active | Not Active | Not Active | Not Active | Not Active | Not Active | Not Active | 8.59 | 8.52 | – | – | – | – | –
CC(N)Cc1c[nH]c2ccc(OCc3cccs3)cc12 (stereo not given) [BW-723C86] | Not Active | Not Active | – | – | – | Not Active | Not Active | Not Active | Not Active | Not Active | Not Active | Not Active | Not Active | 3.63 | 3.6 | – | – | – | – | –
C=C(Cl)Cl [1,1-DICHLOROETHENE] | Not Active | Not Active | – | – | Not Active | Not Active | Not Active | Not Active | Not Active | Not Active | Not Active | Not Active | Not Active | – | – | – | – | – | – | –
Nc1ccc(Cc2ccc(N)cc2)cc1 | Not Active | Not Active | – | – | Not Active | Not Active | Not Active | Not Active | Not Active | Not Active | Not Active | Not Active | Not Active | – | – | – | – | – | – | –
Nc1nc(N)c2nc(CNc3ccc(C(=O)N[C@@H](CCC(=O)O)C(=O)O)cc3)cnc2n1 [AMINOPTERIN] | Not Active | Not Active | – | – | Not Active | Not Active | Not Active | Not Active | Not Active | Not Active | Not Active | Not Active | Not Active | – | – | – | – | – | – | –
COPPER(II) OXIDE | Not Active | Not Active | – | – | Not Active | Not Active | Not Active | Not Active | Not Active | Not Active | Not Active | Not Active | Not Active | – | – | Not Active | Not Active | Not Active | Not Active | Not Active
CN(CCOc1ccc(C[C@H](Nc2ccccc2C(=O)c2ccccc2)C(=O)O)cc1)c1ccccn1 | Not Active | Not Active | – | – | – | Not Active | Not Active | Not Active | Not Active | Not Active | Not Active | Not Active | Not Active | 40.3 | 40 | – | – | – | – | –
ClC1=C(Cl)[C@]2(Cl)[C@@H]3[C@@H]4C[C@@H]([C@H]5O[C@@H]45)[C@@H]3[C@@]1(Cl)C2(Cl)Cl [DIELDRIN] | Not Active | Not Active | – | – | Not Active | Not Active | Not Active | Not Active | Not Active | Not Active | Not Active | Not Active | Not Active | – | – | – | – | – | – | –
CCN1CCN(c2cc3c(cc2F)c(=O)c(C(=O)O)cn3C2CC2)CC1 [ENROFLOXACIN] | Not Active | Not Active | – | – | Not Active | Not Active | Not Active | Not Active | Not Active | Not Active | Not Active | Not Active | Not Active | – | – | – | – | – | – | –
OC[C@H]1O[C@@H]2O[C@H]3[C@H](O)[C@@H](O)[C@@H](O[C@H]4[C@H](O)[C@@H](O)[C@@H](O[C@H]5[C@H](O)[C@@H](O)[C@@H](O[C@H]6[C@H](O)[C@@H](O)[C@@H](O[C@H]7[C@H](O)[C@@H](O)[C@@H](O[C@H]8[C@H](O)[C@@H](O)[C@@H](O[C@H]1[C@H](O)[C@H]2O)O[C@@H]8CO)O[C@@H]7CO)O[C@@H]6CO)O[C@@H]5CO)O[C@@H]4CO)O[C@@H]3CO [BETADEX] | Not Active | Not Active | – | – | Not Active | Not Active | Not Active | Not Active | Not Active | Not Active | Not Active | Not Active | Not Active | – | – | – | – | – | – | –
c1ccc(Cn2ccnc2)cc1 | Not Active | Not Active | – | – | Not Active | Not Active | Not Active | Not Active | Not Active | Not Active | Not Active | Not Active | Not Active | – | – | – | – | – | – | –
C=CCN1CC[C@]23c4c5ccc(O)c4O[C@H]2/C(=N/N=C2\CC[C@@]4(O)[C@H]6Cc7ccc(O)c8c7[C@@]4(CCN6CC=C)[C@H]2O8)CC[C@@]3(O)[C@H]1C5 [NALOXONAZINE] | Not Active | Not Active | – | – | Not Active | Not Active | Not Active | Not Active | Not Active | Not Active | Not Active | Not Active | Not Active | – | – | – | – | – | – | –
CCCCCCNC(=O)n1cc(F)c(=O)[nH]c1=O [CARMOFUR] | Not Active | Not Active | – | – | Not Active | Not Active | Not Active | Not Active | Not Active | Not Active | Not Active | Not Active | Not Active | – | – | – | – | – | – | –
OC[C@H]1O[C@@H]2O[C@H]3[C@H](O)[C@@H](O)[C@@H](O[C@H]4[C@H](O)[C@@H](O)[C@@H](O[C@H]5[C@H](O)[C@@H](O)[C@@H](O[C@H]6[C@H](O)[C@@H](O)[C@@H](O[C@H]7[C@H](O)[C@@H](O)[C@@H](O[C@H]1[C@H](O)[C@H]2O)O[C@@H]7CO)O[C@@H]6CO)O[C@@H]5CO)O[C@@H]4CO)O[C@@H]3CO [ALFADEX] | Not Active | Not Active | – | – | Not Active | Not Active | Not Active | Not Active | Not Active | Not Active | Not Active | Not Active | Not Active | – | – | – | – | – | – | –
